Assay results taken from patent publication US7473688B2, “Indolobenzazepine HCV NS5B inhibitors” (Bristol-Myers Squibb Company, priority 2005, dated 2009).
Like-named read-outs stand apart in the source and are kept apart here.

What was measured:
HCV replicon = HCV replicon FRET assay; type: cell-based; settings: Hepatitis C virus
Source text: FRET Assay Preparation. To perform the HCV FRET screening assay, 96-well cell culture plates were used. The FRET peptide (Anaspec, Inc.) (Taliani et al., Anal. Biochem. 1996, 240, 60-67) contains a fluorescence donor, EDANS, near one end of the peptide and an acceptor, DABCYL, near the other end. The fluorescence of the peptide is quenched by […] resonance energy transfer (RET) between the donor and the acceptor, but as the NS3 protease cleaves the peptide the products are released from RET quenching and the fluorescence of the donor becomes apparent. The assay reagent was made as follows: 5× cell Luciferase cell culture lysis reagent from Promega (#E153A) diluted to 1× with dH2O, NaCl added to 150 mM final, the FRET peptide diluted to 20 uM final from a 2 mM stock.
To prepare plates, HCV replicon cells, with or without a Renilla luciferase reporter gene, were trypsinized and placed into each well of a 96-well plate with titrated test compounds added in columns 3 through 12; columns 1 and 2 contained a control compound (HCV protease inhibitor), and the bottom row contained cells without compound. The plates were then placed in a CO2 incubator at 37° C.
Assays. Subsequent to addition of the test compounds described above (FRET Assay Preparation), at various times the plate was removed and Alamar blue solution (Trek Diagnostics, #00-100) was added per well as a measure of cellular toxicity. After reading in a Cytoflour 4000 instrument (PE Biosystems), plates were rinsed with PBS and then used for FRET assay by the addition of 30 ul of the FRET peptide assay reagent described above (FRET Assay Preparation) per well. The plate was then placed into the Cytoflour 4000 instrument which had been set to 340 excite/490 emission, automatic mode for 20 cycles and the plate read in a kinetic mode. Typically, the signal to noise using an endpoint analysis after the reads was at least three-fold. Alternatively, after Alamar blue reading, plates were rinsed with PBS, 50 ul of DMEM (high glucose) without phenol red was added and plates were then used for luciferase assay using the Promega Dual-Glo Luciferase Assay System.
Compound analysis was determined by quantification of the relative HCV replicon inhibition and the relative cytotoxicity values. To calculate cytoxicity values, the average Alamar Blue fluorescence signals from the control wells were set as 100% non-toxic. The individual signals in each of the compound test wells were then divided by the average control signal and multiplied by 100% to determine […]. To calculate the HCV replicon inhibition values, an average background value was obtained from the two wells containing the highest amount of HCV protease inhibitor at the end of the assay period. These numbers were similar to those obtained from naïve Huh-7 cells.
The background numbers were then subtracted from the average signal obtained from the control wells and this number was used as 100% activity. The individual signals in each of the compound test wells were then divided by the averaged control values after background subtraction and multiplied by 100% to determine percent activity. EC50 values for a protease inhibitor titration were calculated as the concentration which caused a 50% reduction in FRET or luciferase activity. The two numbers generated for the compound plate, percent cytoxicity and percent activity were used to determine compounds of interest for further analysis.

HCV NS5B = target: T1, HCV NS5B (Hepatitis C virus genotype 1b, UniProt Q9WMX2); experiment: HCV NS5B RdRp enzyme assay (preincubation protocol); type: biochemical; settings: Table 1, read-out: IC50*
T1 construct: The protein was expressed with an 18 amino acid C-terminal truncation to enhance the solubility; made in house; host or cells: E. coli BL21 (DE3), pET21a
T1 sequence (Q9WMX2 2420-2992): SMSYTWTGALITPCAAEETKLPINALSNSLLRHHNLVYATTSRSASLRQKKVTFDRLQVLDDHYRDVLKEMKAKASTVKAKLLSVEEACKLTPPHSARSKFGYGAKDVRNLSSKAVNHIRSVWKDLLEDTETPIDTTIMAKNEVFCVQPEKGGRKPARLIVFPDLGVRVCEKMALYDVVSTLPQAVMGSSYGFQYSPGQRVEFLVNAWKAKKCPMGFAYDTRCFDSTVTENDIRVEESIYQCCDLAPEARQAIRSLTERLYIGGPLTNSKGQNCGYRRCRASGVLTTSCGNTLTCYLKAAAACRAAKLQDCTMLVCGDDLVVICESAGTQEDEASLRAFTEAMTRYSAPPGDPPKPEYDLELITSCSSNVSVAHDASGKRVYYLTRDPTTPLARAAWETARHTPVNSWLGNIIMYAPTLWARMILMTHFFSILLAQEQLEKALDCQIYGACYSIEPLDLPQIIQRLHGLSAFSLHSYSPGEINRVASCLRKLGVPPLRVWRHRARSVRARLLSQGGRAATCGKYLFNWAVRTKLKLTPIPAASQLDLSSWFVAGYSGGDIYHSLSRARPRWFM
Method in brief: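 C-terminally truncated (Δ18) genotype 1b NS5B from E. coli, 14 nM, added to compound, then polyA template (0.2 nM), 3H-UTP (0.29 μM) and oligo-dT12 primer precaptured on streptavidin SPA beads. 4 h at 30 °C, pH 7.5, 2% DMSO; SPA readout; IC50 from seven concentrations by logistic fit.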

[1] = Table 1, FRET assay, read-out: EC50*

Compound | EC50 (HCV replicon; [1]) [µM] | IC50 (HCV NS5B) [µM] | EC50 (HCV replicon) [µM]
CN(C)S(=O)(=O)NC(=O)c1ccc2c(C3CCCCC3)c3n(c2c1)CC(C(=O)N1CCN(C(=O)OC(C)(C)C)CC1)=Cc1ccccc1-3 | 0.07 to 1 | 0.01 to 1 | –
CN(C)S(=O)(=O)NC(=O)c1ccc2c(C3CCCCC3)c3n(c2c1)CC(C(=O)N1CCNC(=O)C1)=Cc1ccccc1-3 | 0.07 to 1 | 0.01 to 1 | –
CN(C)S(=O)(=O)NC(=O)c1ccc2c(C3CCCCC3)c3n(c2c1)CC(C(=O)N1CCN(S(C)(=O)=O)CC1)=Cc1ccccc1-3 | 0.07 to 1 | 0.01 to 1 | –
CC(=O)N1CCN(C(=O)C2=Cc3ccccc3-c3c(C4CCCCC4)c4ccc(C(=O)NS(=O)(=O)N(C)C)cc4n3C2)CC1 | 0.07 to 1 | 0.01 to 1 | –
CN(C)S(=O)(=O)NC(=O)c1ccc2c(C3CCCCC3)c3n(c2c1)CC(C(=O)N1CCN(c2ccccc2)CC1)=Cc1ccccc1-3 | 0.07 to 1 | 0.01 to 1 | –
O=C(O)c1ccc2c(C3CCCCC3)c3n(c2c1)CC(C(=O)N1CCC(N2C(=O)Cc4ccccc42)CC1)=Cc1ccccc1-3 | – | 0.01 to 1 | 0.07 to 1
O=C(O)c1ccc2c(C3CCCCC3)c3n(c2c1)CC(C(=O)N1CCC(C(=O)N2CCCC2)CC1)=Cc1ccccc1-3 | 0.07 to 1 | 0.01 to 1 | –
O=C(O)c1ccc2c(C3CCCCC3)c3n(c2c1)CC(C(=O)N1CCC(N2CCCC2=O)CC1)=Cc1ccccc1-3 | 0.07 to 1 | 0.01 to 1 | –
CN(C)S(=O)(=O)NC(=O)c1ccc2c(C3CCCCC3)c3n(c2c1)CC(C(=O)N1CCC(N2CCCC2=O)CC1)=Cc1ccccc1-3 | 0.07 to 1 | 0.01 to 1 | –
CC(=O)NC1CCN(C(=O)C2=Cc3ccccc3-c3c(C4CCCCC4)c4ccc(C(=O)O)cc4n3C2)CC1 | 0.07 to 1 | 0.01 to 1 | –
O=C(O)c1ccc2c(C3CCCCC3)c3n(c2c1)CC(C(=O)N1CCC(n2ccnn2)CC1)=Cc1ccccc1-3 | 0.07 to 1 | 0.01 to 1 | –
COC(=O)c1ccc2c(C3CCCCC3)c3n(c2c1)CC(C(=O)N1CCC(N2CCCCC2=O)CC1)Cc1ccccc1-3 (stereo not shown) | 0.07 to 1 | > 1 | –
O=C(O)c1ccc2c(C3CCCCC3)c3n(c2c1)CC(C(=O)N1CCC(N2CCCCC2=O)CC1)Cc1ccccc1-3 (stereo not shown) | 0.07 to 1 | 0.01 to 1 | –
CS(=O)(=O)NC(=O)c1ccc2c(C3CCCCC3)c3n(c2c1)CC(C(=O)N1CCC(N2CCCC2=O)CC1)=Cc1ccccc1-3 | 1 to 10 | 0.01 to 1 | –
CN(C)S(=O)(=O)NC(=O)c1ccc2c(C3CCCCC3)c3n(c2c1)CC(C(=O)N1CCC(N2CCCCC2=O)CC1)Cc1ccccc1-3 (stereo not shown) | 0.07 to 1 | 0.01 to 1 | –
CN(C)S(=O)(=O)NC(=O)c1ccc2c(C3CCCCC3)c3n(c2c1)CC(C(=O)N1CCC(C(=O)N2CCCC2)CC1)=Cc1ccccc1-3 | 0.07 to 1 | 0.01 to 1 | –
CN(C)S(=O)(=O)NC(=O)c1ccc2c(C3CCCCC3)c3n(c2c1)CC(C(=O)N1CCC(n2ccnn2)CC1)=Cc1ccccc1-3 | 0.07 to 1 | 0.01 to 1 | –
CN(C)S(=O)(=O)NC(=O)c1ccc2c(C3CCCCC3)c3n(c2c1)CC(C(=O)N1CCC(N2CCOCC2)CC1)Cc1ccccc1-3 (stereo not shown) | 0.07 to 1 | 0.01 to 1 | –
COC(=O)c1ccc2c(C3CCCCC3)c3n(c2c1)CC(C(=O)N1CCC(N2CCOCC2)CC1)=Cc1cc(OC)ccc1-3 | 1 to 10 | > 1 | –
CCN(CC)C(=O)C1CCCN(C(=O)C2=Cc3ccccc3-c3c(C4CCCCC4)c4ccc(C(=O)NS(=O)(=O)N(C)C)cc4n3C2)C1 (stereo not shown) | 0.07 to 1 | 0.01 to 1 | –
O=C(O)c1ccc2c(C3CCCCC3)c3n(c2c1)CC(C(=O)N1CCC(N2CCOCC2)CC1)=Cc1ccc(Cl)cc1-3 | 1 to 10 | > 1 | –
COc1ccc2c(c1)C=C(C(=O)N1CCC(N3CCOCC3)CC1)Cn1c-2c(C2CCCCC2)c2ccc(C(=O)O)cc21 | 0.07 to 1 | 0.01 to 1 | –
CN(C)S(=O)(=O)NC(=O)c1ccc2c(C3CCCCC3)c3n(c2c1)CC(C(=O)N1CCC(N(C2CC2)S(=O)(=O)c2ccccc2)CC1)=Cc1ccccc1-3 | 0.07 to 1 | 0.01 to 1 | –
